The target in data set [1] is Free fatty acid receptor 1 (Homo sapiens, UniProt O14842). The experiment in a line: Agonist activity at human FFA1 expressed in CHO cells assessed as increase in calcium level measured by Fluo-4-AM staining based FLIPR assay. The format is functional, cell-based.
Data set [2] can be described thus: Toxicity in ICR mouse at 500 mg/kg, ig measured after 7 days. The format is organism-based. Particulars: in vivo, po, 168 h, time 7 day.

Each structure is given as a SMILES string.

Free fatty acid receptor 1, sequence (O14842 whole entry): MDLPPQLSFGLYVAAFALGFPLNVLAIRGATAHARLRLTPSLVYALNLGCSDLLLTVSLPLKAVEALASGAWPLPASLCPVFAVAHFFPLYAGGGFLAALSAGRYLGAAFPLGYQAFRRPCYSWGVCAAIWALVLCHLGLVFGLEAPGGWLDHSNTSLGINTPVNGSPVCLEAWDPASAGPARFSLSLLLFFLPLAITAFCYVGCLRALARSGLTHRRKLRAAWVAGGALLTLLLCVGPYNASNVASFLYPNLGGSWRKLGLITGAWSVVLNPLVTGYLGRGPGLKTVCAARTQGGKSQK

Broadly, the EC50 is the midpoint of the concentration-response curve. As to `Cc1cc(OCCCS(C)(=O)=O)ccc1-c1cccc(COc2ccc(OCC(=O)O)c(F)c2)c1`, the concentration for a half-maximal effect (EC50) in data set [1] was 61 nM.

Turning to `COc1ccc2cc(-c3cccc(COc4ccc(OCC(=O)O)c(F)c4)c3)ccc2c1`, the Activity entry in data set [2] was “Non-Toxic”.

Values taken from ChEMBL document CHEMBL5154704 (Bioorg Med Chem, 2022).
